Assay results as given in patent publication US20240246942A1, “KINASE INHIBITORS FOR THE TREATMENT OF NEURODEGENERATIVE DISEASES” (priority 2020, published 2024).

Key:
Test in all cases: biochemical
[1] = molecular target: T1, panel of 374 wild-type kinases (Homo sapiens, UniProt P31749); conditions: read-out: % Enzyme Activity (relative to DMSO controls), AKT1
T1 construct: purchased Reaction Biology Corporation

[2] = molecular target: T2, panel of 374 wild-type kinases (Homo sapiens, UniProt Q13557); conditions: read-out: % Enzyme Activity (relative to DMSO controls), CAMK2d
T2 construct: purchased Reaction Biology Corporation

[3] = molecular target: T3, panel of 374 wild-type kinases (Homo sapiens, UniProt Q8N568); conditions: read-out: % Enzyme Activity (relative to DMSO controls), DCAMKL2
T3 construct: purchased Reaction Biology Corporation
T3 sequence (Q8N568 1-766): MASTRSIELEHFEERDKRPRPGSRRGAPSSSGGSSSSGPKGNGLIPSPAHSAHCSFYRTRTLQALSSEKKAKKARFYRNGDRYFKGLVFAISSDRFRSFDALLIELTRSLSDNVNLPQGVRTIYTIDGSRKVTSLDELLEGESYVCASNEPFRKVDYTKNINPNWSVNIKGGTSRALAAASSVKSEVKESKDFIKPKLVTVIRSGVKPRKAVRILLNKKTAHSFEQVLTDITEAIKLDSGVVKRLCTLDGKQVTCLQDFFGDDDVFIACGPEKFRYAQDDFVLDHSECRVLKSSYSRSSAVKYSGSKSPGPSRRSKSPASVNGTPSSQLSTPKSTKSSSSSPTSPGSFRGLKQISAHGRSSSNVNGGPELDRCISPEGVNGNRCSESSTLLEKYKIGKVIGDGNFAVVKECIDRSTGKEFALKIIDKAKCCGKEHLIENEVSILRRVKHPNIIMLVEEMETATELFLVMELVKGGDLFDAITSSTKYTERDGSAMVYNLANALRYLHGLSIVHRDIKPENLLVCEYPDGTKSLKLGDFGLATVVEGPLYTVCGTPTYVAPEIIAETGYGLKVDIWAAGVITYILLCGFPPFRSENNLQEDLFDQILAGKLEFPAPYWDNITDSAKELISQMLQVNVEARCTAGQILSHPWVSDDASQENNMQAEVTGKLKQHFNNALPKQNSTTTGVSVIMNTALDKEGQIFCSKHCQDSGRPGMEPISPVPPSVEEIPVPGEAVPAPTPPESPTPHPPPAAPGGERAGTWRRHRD

[4] = molecular target: T4, panel of 374 wild-type kinases (Homo sapiens, UniProt Q12866); conditions: read-out: % Enzyme Activity (relative to DMSO controls), c-MER
T4 construct: purchased Reaction Biology Corporation
T4 sequence (Q12866 21-999): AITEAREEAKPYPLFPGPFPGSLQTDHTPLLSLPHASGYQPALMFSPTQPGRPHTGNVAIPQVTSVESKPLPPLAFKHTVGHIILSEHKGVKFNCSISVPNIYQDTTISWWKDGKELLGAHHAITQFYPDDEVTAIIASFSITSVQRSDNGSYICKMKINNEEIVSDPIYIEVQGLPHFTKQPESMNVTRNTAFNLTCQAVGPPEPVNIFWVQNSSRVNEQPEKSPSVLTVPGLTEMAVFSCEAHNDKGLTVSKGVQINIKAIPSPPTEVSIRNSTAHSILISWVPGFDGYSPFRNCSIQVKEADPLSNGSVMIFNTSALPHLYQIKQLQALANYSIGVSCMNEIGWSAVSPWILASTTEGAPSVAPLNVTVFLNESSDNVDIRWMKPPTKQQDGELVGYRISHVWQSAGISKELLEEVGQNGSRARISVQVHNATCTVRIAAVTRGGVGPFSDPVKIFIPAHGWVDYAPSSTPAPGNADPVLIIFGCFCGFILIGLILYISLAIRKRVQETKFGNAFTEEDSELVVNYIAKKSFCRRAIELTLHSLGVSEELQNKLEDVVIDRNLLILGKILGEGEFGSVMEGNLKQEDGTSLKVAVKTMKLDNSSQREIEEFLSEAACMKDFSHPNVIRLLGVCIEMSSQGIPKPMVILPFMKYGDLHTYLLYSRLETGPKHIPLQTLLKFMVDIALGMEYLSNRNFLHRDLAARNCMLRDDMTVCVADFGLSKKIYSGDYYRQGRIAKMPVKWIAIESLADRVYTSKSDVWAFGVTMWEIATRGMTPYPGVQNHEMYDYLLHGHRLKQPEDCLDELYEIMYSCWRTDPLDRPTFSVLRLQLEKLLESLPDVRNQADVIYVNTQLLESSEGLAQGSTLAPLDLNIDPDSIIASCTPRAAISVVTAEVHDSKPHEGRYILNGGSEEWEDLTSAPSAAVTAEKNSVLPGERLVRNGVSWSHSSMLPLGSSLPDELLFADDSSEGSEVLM

[5] = molecular target: T5, panel of 374 wild-type kinases (Homo sapiens, UniProt O14965); conditions: read-out: % Enzyme Activity (relative to DMSO controls), Aurora A
T5 construct: purchased Reaction Biology Corporation
T5 sequence (O14965 1-403): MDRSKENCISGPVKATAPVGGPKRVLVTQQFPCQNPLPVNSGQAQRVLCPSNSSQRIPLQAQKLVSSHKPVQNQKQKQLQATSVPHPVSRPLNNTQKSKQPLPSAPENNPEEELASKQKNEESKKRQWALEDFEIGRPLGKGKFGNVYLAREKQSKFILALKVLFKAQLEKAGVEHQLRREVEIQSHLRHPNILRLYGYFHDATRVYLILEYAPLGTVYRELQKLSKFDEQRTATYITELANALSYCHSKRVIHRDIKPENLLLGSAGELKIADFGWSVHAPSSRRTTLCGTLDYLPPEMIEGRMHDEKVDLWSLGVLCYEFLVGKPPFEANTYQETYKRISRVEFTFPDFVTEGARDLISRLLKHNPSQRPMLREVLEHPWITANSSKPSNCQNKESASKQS

[6] = molecular target: T6, panel of 374 wild-type kinases (Homo sapiens, UniProt Q02779); conditions: read-out: % Enzyme Activity (relative to DMSO controls), MLK2/MAP3K10
T6 construct: purchased Reaction Biology Corporation

[7] = molecular target: T7, panel of 374 wild-type kinases (Homo sapiens, UniProt P15056); conditions: read-out: % Enzyme Activity (relative to DMSO controls), BRAF
T7 construct: purchased Reaction Biology Corporation

[8] = molecular target: T8, panel of 374 wild-type kinases (Homo sapiens, UniProt P36894); conditions: read-out: % Enzyme Activity (relative to DMSO controls), ALK3/BMPR1A
T8 construct: purchased Reaction Biology Corporation

[9] = molecular target: T9, panel of 374 wild-type kinases (Homo sapiens, UniProt Q96NX5); conditions: read-out: % Enzyme Activity (relative to DMSO controls), CAMK1g
T9 construct: purchased Reaction Biology Corporation
T9 sequence (Q96NX5 whole entry): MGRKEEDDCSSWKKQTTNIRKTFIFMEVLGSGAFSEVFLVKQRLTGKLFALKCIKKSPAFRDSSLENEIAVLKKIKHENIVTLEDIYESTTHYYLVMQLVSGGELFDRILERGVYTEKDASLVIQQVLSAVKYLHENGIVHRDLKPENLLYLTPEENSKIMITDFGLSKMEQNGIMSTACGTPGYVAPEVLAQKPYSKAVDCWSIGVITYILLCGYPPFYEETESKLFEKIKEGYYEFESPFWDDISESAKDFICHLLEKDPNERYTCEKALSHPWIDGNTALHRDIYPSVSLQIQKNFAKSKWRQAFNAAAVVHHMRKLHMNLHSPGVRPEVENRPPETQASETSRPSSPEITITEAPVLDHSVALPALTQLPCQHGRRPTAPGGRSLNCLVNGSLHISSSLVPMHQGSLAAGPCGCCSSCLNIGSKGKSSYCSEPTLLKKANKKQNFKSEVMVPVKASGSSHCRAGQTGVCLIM

T7 sequence (P15056 whole entry): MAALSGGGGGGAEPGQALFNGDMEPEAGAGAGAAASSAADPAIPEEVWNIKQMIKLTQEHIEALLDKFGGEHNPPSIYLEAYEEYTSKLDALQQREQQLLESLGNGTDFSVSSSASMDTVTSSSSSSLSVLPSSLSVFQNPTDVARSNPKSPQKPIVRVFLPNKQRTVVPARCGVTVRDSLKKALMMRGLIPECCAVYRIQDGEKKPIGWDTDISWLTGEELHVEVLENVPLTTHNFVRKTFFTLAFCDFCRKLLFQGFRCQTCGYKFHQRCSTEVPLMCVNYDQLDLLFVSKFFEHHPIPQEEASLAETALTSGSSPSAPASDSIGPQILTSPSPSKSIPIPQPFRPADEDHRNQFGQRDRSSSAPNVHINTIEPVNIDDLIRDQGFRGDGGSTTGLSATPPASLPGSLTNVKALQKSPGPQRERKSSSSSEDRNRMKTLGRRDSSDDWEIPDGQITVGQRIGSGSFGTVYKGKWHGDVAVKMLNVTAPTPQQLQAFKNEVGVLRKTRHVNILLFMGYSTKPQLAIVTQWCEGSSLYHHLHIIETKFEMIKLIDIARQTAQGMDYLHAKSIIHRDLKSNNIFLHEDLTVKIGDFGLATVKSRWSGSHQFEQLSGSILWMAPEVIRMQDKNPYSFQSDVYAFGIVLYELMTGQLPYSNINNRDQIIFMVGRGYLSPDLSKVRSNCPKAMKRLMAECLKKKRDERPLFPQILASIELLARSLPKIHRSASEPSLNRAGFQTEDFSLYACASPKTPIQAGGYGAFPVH
T2 sequence (Q13557 whole entry): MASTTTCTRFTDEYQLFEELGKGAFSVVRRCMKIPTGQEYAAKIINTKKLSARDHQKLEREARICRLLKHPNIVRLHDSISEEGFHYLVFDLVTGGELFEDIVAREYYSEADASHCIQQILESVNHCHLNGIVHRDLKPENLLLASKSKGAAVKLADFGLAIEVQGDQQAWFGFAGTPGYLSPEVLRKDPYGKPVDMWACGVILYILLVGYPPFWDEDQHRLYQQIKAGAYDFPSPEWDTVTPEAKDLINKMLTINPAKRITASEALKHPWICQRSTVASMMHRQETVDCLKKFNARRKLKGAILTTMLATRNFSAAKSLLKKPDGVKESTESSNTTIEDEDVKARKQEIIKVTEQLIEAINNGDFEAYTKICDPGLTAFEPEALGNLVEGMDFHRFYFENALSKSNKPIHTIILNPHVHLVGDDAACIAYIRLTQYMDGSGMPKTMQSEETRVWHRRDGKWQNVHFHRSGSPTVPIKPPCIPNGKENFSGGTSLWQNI
T8 sequence (P36894 24-532): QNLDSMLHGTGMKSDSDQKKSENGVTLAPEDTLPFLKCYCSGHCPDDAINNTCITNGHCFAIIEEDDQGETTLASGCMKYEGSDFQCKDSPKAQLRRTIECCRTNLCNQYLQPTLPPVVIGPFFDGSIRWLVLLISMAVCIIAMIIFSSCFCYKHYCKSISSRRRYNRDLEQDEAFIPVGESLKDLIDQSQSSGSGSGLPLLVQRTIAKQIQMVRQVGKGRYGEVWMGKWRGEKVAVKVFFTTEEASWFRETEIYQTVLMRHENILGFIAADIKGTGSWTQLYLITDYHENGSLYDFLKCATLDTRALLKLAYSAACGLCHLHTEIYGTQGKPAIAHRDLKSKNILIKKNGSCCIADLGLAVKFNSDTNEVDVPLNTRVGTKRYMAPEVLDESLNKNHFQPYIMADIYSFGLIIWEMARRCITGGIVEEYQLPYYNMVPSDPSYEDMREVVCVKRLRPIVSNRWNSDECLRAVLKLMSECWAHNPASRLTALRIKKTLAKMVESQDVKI
T1 sequence (P31749 whole entry): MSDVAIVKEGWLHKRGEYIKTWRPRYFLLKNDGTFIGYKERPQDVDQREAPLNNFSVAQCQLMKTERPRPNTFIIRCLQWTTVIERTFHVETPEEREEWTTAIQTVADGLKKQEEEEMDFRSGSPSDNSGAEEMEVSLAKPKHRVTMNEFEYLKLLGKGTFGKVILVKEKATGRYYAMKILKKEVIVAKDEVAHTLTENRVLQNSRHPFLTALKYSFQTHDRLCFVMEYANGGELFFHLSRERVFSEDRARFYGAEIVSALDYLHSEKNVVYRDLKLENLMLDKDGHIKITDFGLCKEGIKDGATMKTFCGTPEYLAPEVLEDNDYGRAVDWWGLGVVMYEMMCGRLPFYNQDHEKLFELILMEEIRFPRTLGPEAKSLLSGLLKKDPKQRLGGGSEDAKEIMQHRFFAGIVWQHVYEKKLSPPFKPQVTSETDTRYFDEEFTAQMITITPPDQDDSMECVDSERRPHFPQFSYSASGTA
T6 sequence (Q02779 whole entry): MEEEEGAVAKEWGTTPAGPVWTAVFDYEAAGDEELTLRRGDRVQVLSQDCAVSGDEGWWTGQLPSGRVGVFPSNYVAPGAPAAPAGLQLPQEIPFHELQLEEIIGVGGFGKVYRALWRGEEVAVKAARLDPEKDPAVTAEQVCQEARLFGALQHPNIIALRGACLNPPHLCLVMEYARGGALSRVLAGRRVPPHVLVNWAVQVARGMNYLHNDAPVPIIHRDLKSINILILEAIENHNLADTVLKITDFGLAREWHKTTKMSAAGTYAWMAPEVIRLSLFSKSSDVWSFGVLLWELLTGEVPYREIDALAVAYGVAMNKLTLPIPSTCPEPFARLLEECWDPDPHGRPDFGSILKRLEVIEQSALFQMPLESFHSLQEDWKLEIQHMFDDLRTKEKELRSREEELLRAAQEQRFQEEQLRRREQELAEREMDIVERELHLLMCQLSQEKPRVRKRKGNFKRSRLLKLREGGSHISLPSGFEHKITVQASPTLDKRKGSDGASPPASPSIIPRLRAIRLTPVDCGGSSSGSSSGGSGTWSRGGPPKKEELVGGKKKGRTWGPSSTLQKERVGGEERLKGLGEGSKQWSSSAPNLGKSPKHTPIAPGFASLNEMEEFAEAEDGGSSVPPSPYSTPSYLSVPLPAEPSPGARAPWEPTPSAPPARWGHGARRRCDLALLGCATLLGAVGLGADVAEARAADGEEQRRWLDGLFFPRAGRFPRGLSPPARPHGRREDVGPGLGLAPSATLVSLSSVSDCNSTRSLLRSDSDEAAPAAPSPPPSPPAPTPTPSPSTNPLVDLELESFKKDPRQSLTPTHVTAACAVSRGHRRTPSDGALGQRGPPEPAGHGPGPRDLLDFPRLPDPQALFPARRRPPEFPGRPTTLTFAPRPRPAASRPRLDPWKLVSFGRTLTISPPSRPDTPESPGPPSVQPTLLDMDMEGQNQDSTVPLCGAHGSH

Row | SMILES | remaining activity at 10 µM ([1]; 10 uM) [%] | remaining activity at 10 µM ([2]; 10 uM) [%] | remaining activity at 10 µM ([3]; 10 uM) [%] | remaining activity at 10 µM ([4]; 10 uM) [%] | remaining activity at 10 µM ([5]; 10 uM) [%] | remaining activity at 10 µM ([6]; 10 uM) [%] | remaining activity at 10 µM ([7]; 10 uM) [%] | remaining activity at 10 µM ([8]; 10 uM) [%] | remaining activity at 10 µM ([9]; 10 uM) [%] | remaining activity at 5 µM [1] [%] | remaining activity at 5 µM [2] [%] | remaining activity at 5 µM [3] [%] | remaining activity at 5 µM [4] [%] | remaining activity at 5 µM [5] [%] | remaining activity at 5 µM [6] [%] | remaining activity at 5 µM [7] [%] | remaining activity at 5 µM [8] [%] | remaining activity at 5 µM [9] [%]
1 | Cc1sc(C(=O)NC2COC2)cc1-n1cc(NC(=O)Nc2c(F)cccc2Cl)cn1 [Compound 27, 4-(4-(3-(2-chloro-6-fluorophenyl)ureido)-1H-pyrazol-1-yl)-5-methyl-N-(oxetan-3-yl)thiophene-2-carboxamide] | 105 | 91.3 | 107 | 103 | 88.4 | 90.8 | 105 | 92.5 | 93.1 | – | – | – | – | – | – | – | – | –
2 | O=C(Nc1cnn(-c2csc(C(=O)NC3COC3)c2)c1)Nc1c(F)cccc1Cl [Compound 25, 4-(4-(3-(2-chloro-6-fluorophenyl)ureido)-1H-pyrazol-1-yl)-N-(oxetan-3-yl)thiophene-2-carboxamide] | – | – | – | – | – | – | – | – | – | 105 | 93.5 | 94.3 | 77.1 | 83.1 | 94.3 | 99.9 | 103 | 94
3 | O=C(Nc1cnn(-c2csc(C(=O)NC3COC3)c2)c1)Nc1ccccc1Cl [Compound 17, 4-(4-(3-(2-chlorophenyl)ureido)-1H-pyrazol-1-yl)-N-(oxetan-3-yl)thiophene-2-carboxamide] | – | – | – | – | – | – | – | – | – | 95.4 | 103 | 99.9 | 92.7 | 105 | 98.5 | 93.3 | 105 | 94.2
